Values after ≈ are worked out from the molar mass of the structure shown.
Conditions: buffer; pH 7.4; 6.0 h; 150.0 µM

Row | Structure (SMILES) | solubility kinetic
1 | COc1ccc(OC)c(-c2nc3c(C#N)c[nH]n3c2NC2CCCCC2)c1 | 12.2 µg/mL (≈ 33.5 µM)
2 | CC[C@H](NC(=O)[C@H](C)NC)C(=O)N1C[C@@H](O)C[C@H]1Cc1c(-c2[nH]c3cc(F)ccc3c2C[C@@H]2C[C@H](O)CN2C(=O)[C@H](CC)NC(=O)[C@H](C)NC)[nH]c2cc(F)ccc12 | 75.2 µg/mL (≈ 93.2 µM)
3 | CC(/C=C/C(=O)NO)=C\[C@@H](C)C(=O)c1ccc(N(C)C)cc1 | > 45 µg/mL
4 | CN(C)c1cccc(-c2nnc(N3CCC(C(N)=O)CC3)s2)c1 | > 49 µg/mL
5 | Cn1nnnc1Sc1ncnc2scc(-c3ccccc3F)c12 | 1.2 µg/mL (≈ 3.48 µM)
6 | N#Cc1ccccc1Nc1ncc(-c2cccc3ccccc23)o1 | < 1 µg/mL
7 | O=C(Nc1ncnc2sc3c(c12)CCC3)c1ccco1 | 11.5 µg/mL (≈ 40.4 µM)
8 | CCOc1ccc(CCNC(=O)c2cc3ccncc3n2Cc2cccc(C)c2)cc1OCC | 55.7 µg/mL (≈ 122 µM)
9 | COc1cc2c(cc1-c1c(C)noc1C)ncc1[nH]c(=O)n([C@H](C)c3ccccn3)c12 | > 61 µg/mL
10 | NC(=O)C1CCN(c2nccc(Cl)n2)CC1 | > 35 µg/mL
11 | Fc1ccc(Nc2nc(-n3ccnc3)nc3ccccc23)cc1F | < 1 µg/mL
12 | COC(=O)[C@H](NC(=O)c1cc(-c2ccccc2)nc2ccccc12)c1ccccc1 | < 1 µg/mL
13 | O=C1Nc2ccccc2/C1=C\c1cc(F)c(O)c(F)c1 | > 40 µg/mL
14 | CCN(CC)[S+](=O)([O-])c1cc(NC(=O)c2[nH]c(C)c(C(C)=O)c2C)ccc1OC | 18.1 µg/mL (≈ 43 µM)
15 | O=C(c1nc(-c2ccc(Cl)cc2Cl)c2cnccn12)N1CCOCC1 | 20.2 µg/mL (≈ 53.6 µM)
16 | CN(C)c1ccc(-c2csc(N3CCC(C(N)=O)CC3)n2)cc1 | 3.78 µg/mL (≈ 11.4 µM)
17 | Cc1cccc(Nc2nc(NCc3ccco3)c3ccccc3n2)c1.Cl | < 1 µg/mL
18 | CCOC(=O)C1CCN(C(=O)C2(NC(=O)Nc3ccccc3Cl)CCC2)CC1 | 43.2 µg/mL (≈ 106 µM)
19 | Fc1ccc(-c2ccc(Nc3nc(-c4ccncc4)nc4ccccc34)cc2F)c(F)c1 | < 1 µg/mL
20 | CN1C(=O)c2ccccc2[S@](=O)c2ccc(C(=O)NCCN3CCCC3)cc21 | > 59 µg/mL
21 | Cc1cc(C)nc(NC(=S)N2CCN(c3cccc(C(F)(F)F)n3)CC2)c1 | 20.6 µg/mL (≈ 52 µM)
22 | COc1ccc(S(=O)(=O)N2CCOCC2)cc1NC(=O)c1cccc(-n2cccc2)c1 | 6.13 µg/mL (≈ 13.9 µM)
23 | O=C(c1ccc2c(c1)ncn2-c1ccc(C(F)(F)F)cc1)N1CCCCC1 | > 55 µg/mL

Further lines, results first:

Row | solubility kinetic | Structure (SMILES)
24 | < 1 µg/mL | Cc1nn(Cc2ccc(Cl)cc2)c(C)c1NC(=O)c1cc(-c2ccc3c(c2)OCO3)on1
25 | 0.578 µg/mL (≈ 1.11 µM) | Cc1ccc(S(=O)(=O)Nc2cnccc2C(=O)Nc2nc(-c3ccc(Cl)c(Cl)c3)cs2)cc1
26 | < 1 µg/mL | Cc1noc(/C=C/c2ccccc2F)c1S(=O)(=O)N1CCC(C(=O)Nc2ccc(C#N)cc2)CC1
27 | < 1 µg/mL | Cc1sc(NC(=O)Cc2ccc3c(c2)OCO3)nc1-c1ccc2c(c1)CCN2C(=O)c1ccccc1C(F)(F)F
28 | > 81 µg/mL | COc1cc([C@@H](CC(=O)O)c2ccc(C)c(CN3C[C@@H](C)Oc4ccccc4S3(=O)=O)c2)cc2nnn(C)c12
29 | 29.6 µg/mL (≈ 59.6 µM) | Cc1nnn(C)c1-c1cnc2c3ccc(C(C)(C)O)cc3n([C@H](c3ccccc3)C3CCOCC3)c2c1
30 | 54 µg/mL (≈ 128 µM) | O=C1NCc2ccc(-c3cc4c(ccn4Cc4cccnc4)c(C4=CCOCC4)n3)cc21
31 | 1.09 µg/mL (≈ 2.93 µM) | COc1cc(NC(=O)c2cc(-c3ccccc3O)no2)cc(OC)c1OC
32 | > 67 µg/mL | Cc1cc(SCc2sc(-c3ccc(C(F)(F)F)cc3)nc2C)ccc1OCC(=O)O
33 | 42 µg/mL (≈ 107 µM) | COc1ccc(-n2nc(C)c([C@@H]3C=C[C@@H](NCc4ccc(F)cc4)C3)c2C)cc1
34 | 2.18 µg/mL (≈ 5.59 µM) | CCOC(=O)c1nc(Nc2ccc(N3CCC(C)CC3)cc2)c2ccccc2n1
35 | 26.2 µg/mL (≈ 69.4 µM) | CCOC(=O)c1ccc(-c2ccc3ncnc(NCCc4cnc[nH]4)c3c2)o1
36 | 1.2 µg/mL (≈ 2.86 µM) | COc1cccc(C(=O)Nc2nc(-c3nnn(-c4cc(C)ccc4C)c3C)ns2)c1
37 | < 1 µg/mL | O=c1[nH]c(C2CCN(S(=O)(=O)c3ccc4c(c3)OCCO4)CC2)nc2c1nnn2Cc1c(F)cccc1Cl

From PubChem BioAssay AID1645848
